Patent US7790737B2, “Substituted pyrimidine compounds and their utility as CETP inhibitors” (Kowa Company, Ltd., priority 2007, dated 2010)

Biological target: T1, CETP (Homo sapiens, UniProt P11597)
T1 construct: from tissue; host or cells: human plasma
T1 sequence (P11597 18-493): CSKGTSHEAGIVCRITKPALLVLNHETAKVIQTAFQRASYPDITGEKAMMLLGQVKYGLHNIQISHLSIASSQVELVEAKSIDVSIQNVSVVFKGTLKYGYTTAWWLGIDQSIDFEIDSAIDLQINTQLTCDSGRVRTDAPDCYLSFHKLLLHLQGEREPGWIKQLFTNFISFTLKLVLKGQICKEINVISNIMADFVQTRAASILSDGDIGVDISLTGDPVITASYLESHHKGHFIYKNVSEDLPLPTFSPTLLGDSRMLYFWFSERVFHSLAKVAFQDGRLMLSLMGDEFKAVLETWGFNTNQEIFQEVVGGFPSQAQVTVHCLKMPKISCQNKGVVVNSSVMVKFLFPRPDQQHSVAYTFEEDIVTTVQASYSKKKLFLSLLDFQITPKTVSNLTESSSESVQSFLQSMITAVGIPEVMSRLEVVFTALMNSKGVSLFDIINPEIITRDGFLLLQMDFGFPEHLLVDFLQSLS
Test: Measurement of CETP inhibitory action in human plasma (Roar Biomedical CETP Activity kit, fluorescence)
Assay type: biochemical
Details: human plasma incubated with compound at 37° C. for 4 hours; calculated from CETP inhibitory rate at two or more concentrations; read-out: IC50 (concentration inhibiting the CETP activity by 50%)
Method: A solution obtained by dissolving an exemplary compound or a comparative compound in polyethylene glycol/N-methyl-2-pyrrolidone (vol/vol=1/1) was added to human plasma, and the mixture was incubated in an incubator at 37° C. for 4 hours. The CETP activity in this plasma was measured with Cholesteryl Ester Transfer Protein Activity kit (Roar Biomedical, catalog No.: RB-CETP). Specifically, to each well of a 96-well plate, 95 μL of a buffer (10 mM Tris, 150 mM NaCl, 2 mM EDTA, pH 7.4), 2 μL of Donor particle and 2 μL of Acceptor particle were added, 1 μL of the human plasma after the incubation was added to the mixture, and the mixture was incubated in an incubator at 37° C. for 2 hours. After completion of the incubation, fluorescence intensity (FLU) was measured with a fluorescence plate reader (excitation wavelength: 465 nm, emission wavelength: 535 nm). In accordance with the following equation 1, the CETP activity (% of control) was obtained for the compounds of the examples and the comparative compounds for two or more concentrations. CETP activity (% of control)=(Sample FLU−Blank FLU)×100/(Control FLU−Blank FLU) (Equation 1) In the equation, the terms have the following meanings: Blank FLU: Fluorescence intensity of sample not added with plasma Control FLU: Fluorescence intensity of plasma not added with solution of compound Sample FLU: Fluorescence intensity of plasma added with solution of compound
A value obtained by subtracting the value of the CETP activity from 100 was defined as the CETP inhibitory rate of each exemplary compound, and a concentration inhibiting the CETP activity by 50% (IC50) was calculated for each exemplary compound from the values of the CETP inhibitory rate at two or more concentrations. As the comparative compound, the following compound was used, which is the pyrimidine compound having a benzyl(heterocyclylmethyl)amine structure described in Example 66 of Patent document 10 (International Patent Publication WO2006/073973).

Row | SMILES | potency estimated from few doses [nM]
1 | CCN(CC1CCCC1)c1nc2c(cc1CN(c1ncc(OCCS(C)(=O)=O)cn1)C(C)c1cc(C(F)(F)F)cc(C(F)(F)F)c1)c(C)nn2C (centres unmarked) [Example 5, 5-[({1-[3,5-bis(trifluoromethyl)phenyl]ethyl}{5-[2-(methylsulfonyl)ethoxy]pyrimidin-2-yl}amino)methyl]-N-(cyclopentylmethyl)-N-ethyl-1,3-dimethyl-1H-pyrazolo[3,4-b]pyridin-6-amine] | 35
2 | CCN(CC1CCCC1)c1nc2ccccc2cc1CN(Cc1cc(C(F)(F)F)cc(C(F)(F)F)c1)c1ncccn1 [Comparative Compound 1, reference compound] | 20000
3 | CCN(CC1CCCC1)c1ccc(OC)nc1CN(c1ncc(OCCS(C)(=O)=O)cn1)C(C)c1cc(C(F)(F)F)cc(C(F)(F)F)c1 (centres unmarked) [Example 3, N-{1-[3,5-bis(trifluoromethyl)phenyl]ethyl}-N-({3-[(cyclopentylmethyl)(ethyl)amino]-6-methoxypyridin-2-yl}methyl)-5-[2-(methylsulfonyl)ethoxy]pyrimidin-2-amine] | 150
4 | CCN(CC1CCCC1)c1ccc(OC)nc1CN(c1ncc(OCC[S+](C)[O-])cn1)C(C)c1cc(C(F)(F)F)cc(C(F)(F)F)c1 (centres unmarked) [Example 2, N-{1-[3,5-bis(trifluoromethyl)phenyl]ethyl}-N-({3-[(cyclopentylmethyl)(ethyl)amino]-6-methoxypyridin-2-yl}methyl)-5-[2-(methylsulfinyl)ethoxy]pyrimidin-2-amine] | 150
5 | CCN(CC1CCCC1)c1nc2ccccc2cc1CN(c1ncc(OCCS(C)(=O)=O)cn1)C(C)c1cc(C(F)(F)F)cc(C(F)(F)F)c1 (centres unmarked) [Example 7, 3-[({1-[3,5-bis(trifluoromethyl)phenyl]ethyl}{5-[2-(methylsulfonyl)ethoxy]pyrimidin-2-yl}amino)methyl]-N-(cyclopentylmethyl)-N-ethylquinolin-2-amine] | 50

Next, values leading:

Row | potency estimated from few doses [nM] | SMILES
6 | 500 | CCN(CC1CCCC1)c1nc2ccc(OC)cc2cc1CN(c1ncc(OCCS(C)(=O)=O)cn1)C(C)c1cc(C(F)(F)F)cc(C(F)(F)F)c1 (centres unmarked) [Example 9, 3-[({1-[3,5-bis(trifluoromethyl)phenyl]ethyl}{5-[2-(methylsulfonyl)ethoxy]pyrimidin-2-yl}amino)methyl]-N-(cyclopentylmethyl)-N-ethyl-6-methoxyquinolin-2-amine]
7 | 150 | CCN(CC1CCCC1)c1nc2c(cc1CN(c1ncc(OCCS(C)(=O)=O)cn1)C(C)c1cc(C#N)cc(C(F)(F)F)c1)c(C)nn2C (centres unmarked) [Example 23, 3-{1-[({6-[(cyclopentylmethyl)(ethyl)amino]-1,3-dimethyl-1H-pyrazolo[3,4-b]pyridin-5-yl}methyl){5-[2-(methylsulfonyl)ethoxy]pyrimidin-2-yl}amino]ethyl}-5-(trifluoromethyl)benzonitrile]
8 | 30 | CCN(CC1CCCC1)c1nc(C)c(C)cc1CN(c1ncc(OCCS(C)(=O)=O)cn1)C(C)c1cc(C(F)(F)F)cc(C(F)(F)F)c1 (centres unmarked) [Example 19, N-{1-[3,5-bis(trifluoromethyl)phenyl]ethyl}-N-({2-[(cyclopentylmethyl)(ethyl)amino]-5,6-dimethylpyridin-3-yl}methyl)-5-[2-(methylsulfonyl)ethoxy]pyrimidin-2-amine]
9 | 200 | CCN(CC1CCCC1)c1nc(C)ccc1CN(c1ncc(OCCS(C)(=O)=O)cn1)C(C)c1cc(C(F)(F)F)cc(C(F)(F)F)c1 (centres unmarked) [Example 15, N-{1-[3,5-bis(trifluoromethyl)phenyl]ethyl}-N-({2-[(cyclopentylmethyl)(ethyl)amino]-6-methylpyridin-3-yl}methyl)-5-[2-(methylsulfonyl)ethoxy]pyrimidin-2-amine]
10 | 45 | CCc1ccc(CN(c2ncc(OCCS(C)(=O)=O)cn2)C(C)c2cc(C(F)(F)F)cc(C(F)(F)F)c2)c(N(CC)CC2CCCC2)n1 (centres unmarked) [Example 17, N-{1-[3,5-bis(trifluoromethyl)phenyl]ethyl}-N-({2-[(cyclopentylmethyl)(ethyl)amino]-6-ethylpyridin-3-yl}methyl)-5-[2-(methylsulfonyl)ethoxy]pyrimidin-2-amine]
11 | 80 | CCN(CC1CCCC1)c1nc2ccc(C(F)(F)F)cc2cc1CN(c1ncc(OCCS(C)(=O)=O)cn1)C(C)c1cc(C(F)(F)F)cc(C(F)(F)F)c1 (centres unmarked) [Example 11, 3-[({1-[3,5-bis(trifluoromethyl)phenyl]ethyl}{5-[2-(methylsulfonyl)ethoxy]pyrimidin-2-yl}amino)methyl]-N-(cyclopentylmethyl)-N-ethyl-6-trifluoromethylquinolin-2-amine]
12 | 80 | CCN(CC1CCCC1)c1nc2ccc(C)cc2cc1CN(c1ncc(OCCS(C)(=O)=O)cn1)C(C)c1cc(C(F)(F)F)cc(C(F)(F)F)c1 (centres unmarked) [Example 13, 3-[({1-[3,5-bis(trifluoromethyl)phenyl]ethyl}{5-[2-(methylsulfonyl)ethoxy]pyrimidin-2-yl}amino)methyl]-N-(cyclopentylmethyl)-N-ethyl-6-methylquinolin-2-amine]

Test system: CETP
Test: Measurement of CETP inhibitory activity in blood of hamster (single oral administration)
Assay type: in vivo
Details: hamster plasma, single oral dose 30 mg/kg in olive oil, blood collected 2 hours after administration, n=3; control 33.7 ± 2.3
Method: 1: Labeling of Donor Lipoprotein (HDL3 Fraction) with ^3H-Cholesterol and Preparation of Acceptor Lipoprotein (LDL Fraction)
The donor lipoprotein was prepared by adding KBr to plasma of healthy human subject (50 mL) to adjust the specific gravity (d) of the plasma to be 1.125, centrifuging the mixture at 100,000 rpm and 4° C. for 2.5 hours (Optima Max-E TLA-100.2 rotor, Beckman), and collecting the lower layer (HDL3 fraction, d>1.125). The resulting fraction was dialyzed against PBS (10 mM Na2HPO4, 10 mM NaH2PO4, 0.15 M NaCl, 1 mM EDTA-2Na, pH 7.4). Then, a 95% ethanol solution of 9.25 MBq 1, 2-3H(N)cholesterol (NEN™, Life Science Products, USA) was added to the sample with stirring, and the mixture was incubated at 37° C. for 18 hours. […]
To 10 μL of the hamster plasma, 5 μL of ^3H-labeled HDL3 and […] of LDL were added, and the final volume of the mixture was made 600 μL with a TBS solution (10 mM Tris, 0.15 M NaCl, pH 7.4). […] Then, radioactivity of 3H was measured with a liquid scintillation counter (TRI-CARB 2700 TR, Packard). […] CETP activity (%)=(Blank dpm−Sample dpm)×100/(Blank dpm) (Equation 2) In the equation, the terms have the following meanings: Blank dpm: Value of 3H radioactivity of sample not added with plasma Sample dpm: Value of ^3H radioactivity of sample added with compound or control sample.

Row | SMILES | Average CETP activity ± standard deviation (%)
13 | CCN(CC1CCCC1)c1nc2c(cc1CN(c1ncc(OCCS(C)(=O)=O)cn1)C(C)c1cc(C(F)(F)F)cc(C(F)(F)F)c1)c(C)nn2C (centres unmarked) [Example 5, 5-[({1-[3,5-bis(trifluoromethyl)phenyl]ethyl}{5-[2-(methylsulfonyl)ethoxy]pyrimidin-2-yl}amino)methyl]-N-(cyclopentylmethyl)-N-ethyl-1,3-dimethyl-1H-pyrazolo[3,4-b]pyridin-6-amine] | 3.7 ± 3.2
14 | CCN(CC1CCCC1)c1nc2ccccc2cc1CN(Cc1cc(C(F)(F)F)cc(C(F)(F)F)c1)c1ncccn1 [Comparative Compound 1, reference compound] | 30.3 ± 4.2
